Experimental data as given in patent publication US20090312340A1 (priority 2007, published 2009).

Key:
[1] = test system: patients with NSTE-ACS who underwent PCI; experiment: MERLIN-TIMI 36 post-hoc analysis: VT, CV death and sudden cardiac death after PCI; assay type: in vivo, human; settings: n = 737
Protocol: The incidence of ventricular tachyarrhythmias after percutaneous coronary intervention (PCI) is low, but has been associated with worse clinical outcomes.
The MERLIN-TIMI 36 trial randomized 6560 pts to RAN or placebo (PLA) stratified according to whether an early invasive or conservative medical strategy was planned. The target RAN dose was 1000 mg bid and could be titrated downward at the investigator's discretion. Continuous Holter monitoring was performed for the first 7 days after randomization. Patients (RAN=737, PLA=754) with at least 2 hrs of evaluable Holter data from start of PCI or patients with at least 1 hour of evaluable Holter data if Holter was restarted within 1 hour from start of PCI were included in this post-hoc analysis. The incidence of non-sustained VT episodes (≧100 bpm lasting at least 8 beats but <30 sec) post PCI was compared using Cochran-Mantel-Haenzel test for general association, stratified by intent for early invasive strategy.

[2] = test system: women with NSTE ACS; experiment: MERLIN-TIMI 36: outcomes in women with NSTE ACS; assay type: in vivo, human; settings: ranolazine vs placebo
[3] = test system: patients with non-ST elevation acute coronary syndrome; experiment: MERLIN-TIMI 36: Seattle Angina Questionnaire scores at 4 months; assay type: in vivo, human
Excerpt: The MERLIN-TIMI 36 secondary efficacy endpoint (ITT) Seattle Angina Questionnaire scores at 4 months for anginal frequency scale are shown in Table 16 below, and scores for physical limitation scale are shown in Table 17 below.

[4] = test system: patients with non-ST elevation acute coronary syndrome; experiment: MERLIN-TIMI 36: safety endpoints (death from any cause, symptomatic documented arrhythmias, CV hospitalization); assay type: in vivo
[5] = test system: patients with non-ST elevation acute coronary syndrome; experiment: MERLIN-TIMI 36: arrhythmias on continuous ECG (Holter) recording, first 7 days; assay type: in vivo, human
Protocol: The safety endpoint data for incidence of clinically significant arrhythmias during 7 day Holter monitoring from MERLIN-TIMI 36 is shown in Table 24 below.
Continuous ECG (Holter) recording was performed for the first 7 days after randomization. Because of the known prolongation of the QT interval with ranolazine, analyses of a prespecified set of arrhythmias were a major objective of the trial. All arrhythmias were evaluated in the TIMI ECG Core Laboratory by cardiologists blinded to treatment and outcomes.
Continuous ECG (cECG or Holter) recording was performed for the first 7 days after randomization. Prespecified arrhythmia analyses were evaluated by a core laboratory blinded to treatment and outcomes.

[6] = test system: patients with non-ST elevation acute coronary syndrome; experiment: as above; assay type: in vivo, human; settings: group allocated to ranolazine
[7] = test system: patients with non-ST elevation acute coronary syndrome; experiment: MERLIN-TIMI 36: ischemia on Holter / continuous ECG (CECG); assay type: in vivo, human; settings: >72 hours after randomization, ranolazine vs placebo
Protocol: At randomization, 6355 patients (99%) had 3-lead CECG monitoring initiated (median duration 6.9 days). The primary CECG endpoint was the rate of ST dep>1 mm from baseline lasting >1 minute with heart rate at onset <100 bpm. Exploratory analyses using ST dep>0.5 mm were also performed.

[8] = test system: patients with non-ST elevation ACS; experiment: MERLIN-TIMI 36: HbA1c and hyperglycemia; assay type: in vivo, human
Excerpt: The proportion of patients in the MERLIN-TIMI 36 study with HBA1C ≧7% is shown in Table 28 below (and see FIG. 15).
The proportion of patients with HBA1C ≧7% (with diabetes or no diabetes) at various times during the MERLIN-TIMI 36 study is shown in Table 29 below (and FIG. 16).
HbA1c data are reported as least-square means. Patients categorized as “diabetic” had been diagnosed as diabetic before or at the time of randomization. Patients categorized as “no diabetes” had not been diagnosed as diabetic before or at the time of randomization. Some patients characterized as “no diabetes” may have been diagnosed as “diabetic” during the trial; however, these patients are still listed in the “no diabetes” category in FIG. 4B.

[9] = PCI patients, average follow-up ~1 year
[10] = within 2 hours from start of PCI
[11] = Baseline (in-hospital visit prior to randomization), all patients dosed n = 3268
[12] = Diabetes at enrollment (n = 1098), Baseline
[13] = Diabetes at enrollment (n = 1098), Final Visit
[14] = Diabetes at enrollment (n = 1098), Month 4
[15] = Diabetes at enrollment (n = 1098), Month 8
[16] = Diabetes at enrollment (n = 1098), Month 16
[17] = Final Visit, all patients dosed n = 3268
[18] = Month 4, all patients dosed n = 3268
[19] = Month 8, all patients dosed n = 3268
[20] = Month 16, all patients dosed n = 3268
[21] = No Diabetes at enrollment (n = 2170), Baseline
[22] = No Diabetes at enrollment (n = 2170), Final Visit
[23] = No Diabetes at enrollment (n = 2170), Month 4
[24] = No Diabetes at enrollment (n = 2170), Month 8
[25] = No Diabetes at enrollment (n = 2170), Month 16

COc1ccccc1OCC(O)CN1CCN(CC(=O)Nc2c(C)cccc2C)CC1 (racemic) [Ranolazine, (±)-N-(2,6-dimethylphenyl)-4-[2-hydroxy-3-(2-methoxyphenoxy)-propyl]-1-piperazineacetamide]
CVD (cardiovascular death) - anytime, incidence [1, 9]: 0.9% | CVD (cardiovascular death) - anytime, no. of patients [1, 9]: 7 | SCD (sudden cardiac death) - anytime, incidence [1, 9]: 0.1% | SCD (sudden cardiac death) - anytime, no. of patients [1, 9]: 1 | CVD (cardiovascular death) - 30 days, incidence ([1]; PCI patients): 0.5% | CVD (cardiovascular death) - 30 days, no. of patients ([1]; PCI patients): 4 | SCD (sudden cardiac death) - 30 days, incidence ([1]; PCI patients): 0.1% | SCD (sudden cardiac death) - 30 days, no. of patients ([1]; PCI patients): 1 | VT ≧ 8 beats, % of patients with at least 1 episode [1, 10]: 1.1% | VT ≧ 8 beats, no. of patients with at least 1 episode [1, 10]: 8 | HR, worsening angina [2]: 0.61 | SAQ Physical Limitation Scale score, 25th percentile-75th percentile ([3]; N 2339): 55.6-94.4 | SAQ Physical Limitation Scale score, Min-Max ([3]; N 2339): 0-100 | SAQ Anginal Frequency Scale score, 25th percentile-75th percentile ([3]; N 2558): 80-100 | SAQ Anginal Frequency Scale score, Median ([3]; N 2558): 100 | SAQ Anginal Frequency Scale score, Min-Max ([3]; N 2558): 0-100 | Death or CV hospitalization endpoint-defining events: CV hospitalization, % of pts with events ([4]; all patients dosed, n = 3268): 89.3% | Death or CV hospitalization endpoint-defining events: CV hospitalization, no. of pts ([4]; all patients dosed, n = 3268): 926 | Death or CV hospitalization endpoint-defining events: Death, % of pts with events ([4]; all patients dosed, n = 3268): 10.7% | Death or CV hospitalization endpoint-defining events: Death, no. of pts ([4]; all patients dosed, n = 3268): 111 | Cardiac arrest NOS, incidence ([4]; human, in vivo): 0.3% | Cardiac arrest NOS, no. of pts ([4]; human, in vivo): 10 | Symptomatic documented arrhythmias - overall, incidence ([4]; human, in vivo): 3.0% | Symptomatic documented arrhythmias - overall, no. of pts ([4]; human, in vivo): 99 | Symptomatic documented bradyarrhythmias, incidence ([4]; human, in vivo): 1.0% | Symptomatic documented bradyarrhythmias, no. of pts ([4]; human, in vivo): 34 | Symptomatic documented supraventricular arrhythmias, incidence ([4]; human, in vivo): 1.2% | Symptomatic documented supraventricular arrhythmias, no. of pts ([4]; human, in vivo): 38 | Symptomatic documented ventricular arrhythmias, incidence ([4]; human, in vivo): 0.7% | Symptomatic documented ventricular arrhythmias, no. of pts ([4]; human, in vivo): 22 | HR, total mortality ([4]; ranolazine vs placebo): 0.99 | Supraventricular tachycardia on cECG, no. of patients ([5]; Example 9, patients with valid cECG recording): 1413 | Any clinically significant arrhythmia during 7 day Holter, incidence ([5]; all patients dosed, n = 3268): 71.3% | Any clinically significant arrhythmia during 7 day Holter, no. of pts ([5]; all patients dosed, n = 3268): 2330 | Bradycardic episode during 7 day Holter, incidence ([5]; all patients dosed, n = 3268): 38.5% | Bradycardic episode during 7 day Holter, no. of pts ([5]; all patients dosed, n = 3268): 1257 | New onset atrial fibrillation during 7 day Holter, incidence ([5]; all patients dosed, n = 3268): 1.7% | New onset atrial fibrillation during 7 day Holter, no. of pts ([5]; all patients dosed, n = 3268): 55 | Supraventricular tachycardia (any SVT >=120 bpm) during 7 day Holter, incidence ([5]; all patients dosed, n = 3268): 43.2% | Supraventricular tachycardia (any SVT >=120 bpm) during 7 day Holter, no. of pts ([5]; all patients dosed, n = 3268): 1413 | Ventricular tachycardia (any VT >= 100 bpm >=3 beats) during 7 day Holter, incidence ([5]; all patients dosed, n = 3268): 29.0% | Ventricular tachycardia (any VT >= 100 bpm >=3 beats) during 7 day Holter, no. of pts ([5]; all patients dosed, n = 3268): 948 | Δ in patients with Sustained VT (>=30 sec) ([5]; placebo vs ranolazine): 0 | Δ (%) Polymorphic VT >= 8 beats ([5]; ranolazine vs placebo): −21% | Δ (%) VT ≧ 3 beats (≧100 b/m) ([5]; ranolazine vs placebo): −17% | Δ (%) VT ≧ 4 beats (≧100 b/m) ([5]; ranolazine vs placebo): −30% | Δ (%) VT ≧ 8 beats (<30 sec) ([5]; ranolazine vs placebo): −37% | Clinically reported sudden cardiac death, no. of patients [6]: 56 | RR, CECG events [7]: 0.86 | Patients with HbA1C ≧7%, no. [8, 11]: 655 | Proportion of patients with HbA1C ≧7% [8, 11]: 24% | Patients with HbA1C ≧7%, no. [8, 12]: 542 | Proportion of patients with HbA1C ≧7% [8, 12]: 57% | Patients with HbA1C ≧7%, no. [8, 13]: 324 | Proportion of patients with HbA1C ≧7% [8, 13]: 42% | Patients with HbA1C ≧7%, no. [8, 14]: 326 | Proportion of patients with HbA1C ≧7% [8, 14]: 41% | Patients with HbA1C ≧7%, no. [8, 15]: 263 | Proportion of patients with HbA1C ≧7% [8, 15]: 44% | Patients with HbA1C ≧7%, no. [8, 16]: 63 | Proportion of patients with HbA1C ≧7% [8, 16]: 48% | Patients with HbA1C ≧7%, no. [8, 17]: 416 | Proportion of patients with HbA1C ≧7% [8, 17]: 17% | Patients with HbA1C ≧7%, no. [8, 18]: 404 | Proportion of patients with HbA1C ≧7% [8, 18]: 17% | Patients with HbA1C ≧7%, no. [8, 19]: 335 | Proportion of patients with HbA1C ≧7% [8, 19]: 18% | Patients with HbA1C ≧7%, no. [8, 20]: 84 | Proportion of patients with HbA1C ≧7% [8, 20]: 20% | Patients with HbA1C ≧7%, no. [8, 21]: 113 | Proportion of patients with HbA1C ≧7% [8, 21]: 6% | Patients with HbA1C ≧7%, no. [8, 22]: 92 | Proportion of patients with HbA1C ≧7% [8, 22]: 6% | Patients with HbA1C ≧7%, no. [8, 23]: 78 | Proportion of patients with HbA1C ≧7% [8, 23]: 5% | Patients with HbA1C ≧7%, no. [8, 24]: 72 | Proportion of patients with HbA1C ≧7% [8, 24]: 6% | Patients with HbA1C ≧7%, no. [8, 25]: 21 | Proportion of patients with HbA1C ≧7% [8, 25]: 7%
